The text below walks through data of patent US11236094B2, “Substituted pyrrolo[2,1-f][1,2,4]triazines as FGFR inhibitors” (CSPC ZHONGQI PHARMACEUTICAL TECHNOLOGY (SHIJIAZHUANG) CO., …, priority 2017, dated 2022).

Read-outs that look alike come from different tables or passages of the source.

One data set deals with human FGFR4 (Homo sapiens, UniProt P22455). Description: 33P isotope-labeled kinase activity test, wild-type FGFR4. To be noted: 33P-ATP 100 μM, 120 minutes.
For a further data set, the target named is human FGFR1 (Homo sapiens, UniProt P11362). Description: 33P isotope-labeled kinase activity test, wild-type FGFR1. To be noted: 33P-ATP 5 μM, 120 minutes.
Sequence of human FGFR1 (P11362 22-822): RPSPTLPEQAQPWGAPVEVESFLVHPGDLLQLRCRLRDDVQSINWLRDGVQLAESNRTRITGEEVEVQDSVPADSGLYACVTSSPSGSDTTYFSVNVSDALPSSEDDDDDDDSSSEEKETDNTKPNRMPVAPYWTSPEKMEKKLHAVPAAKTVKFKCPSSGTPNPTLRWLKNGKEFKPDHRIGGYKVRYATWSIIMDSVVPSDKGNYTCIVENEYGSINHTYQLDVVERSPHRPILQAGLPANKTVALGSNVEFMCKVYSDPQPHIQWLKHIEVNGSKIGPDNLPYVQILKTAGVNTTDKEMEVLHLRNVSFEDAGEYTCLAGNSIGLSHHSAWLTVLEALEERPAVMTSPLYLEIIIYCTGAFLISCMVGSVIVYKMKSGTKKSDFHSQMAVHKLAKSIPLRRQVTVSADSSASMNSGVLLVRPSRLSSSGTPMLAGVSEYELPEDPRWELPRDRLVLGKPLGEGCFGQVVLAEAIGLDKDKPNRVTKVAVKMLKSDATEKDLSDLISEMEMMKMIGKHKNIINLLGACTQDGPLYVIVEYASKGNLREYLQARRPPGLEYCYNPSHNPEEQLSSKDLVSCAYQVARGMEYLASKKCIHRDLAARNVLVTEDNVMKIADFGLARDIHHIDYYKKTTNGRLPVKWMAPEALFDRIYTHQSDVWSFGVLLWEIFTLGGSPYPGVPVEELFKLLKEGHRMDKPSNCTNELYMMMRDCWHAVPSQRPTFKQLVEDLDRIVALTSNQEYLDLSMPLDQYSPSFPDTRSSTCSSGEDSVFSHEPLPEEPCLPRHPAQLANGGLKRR
Data set [1] is described as follows: Pharmacokinetics in mice in vivo. To be noted: female, mouse, plasma, Balb/c mice; for AUC: read-out: Area under the curve, AUC; for clearance: read-out: Clearance rate; for half-life: read-out: Half-life T1/2 (converted); for bioavailability: read-out: Bioavailability F. The procedure: Assay 3: Evaluation of Compounds' Pharmacokinetics
Experiment purpose: To test the pharmacokinetics of the compound in mice in vivo.
The pharmacokinetics profile in rodents after the intravenous injection and the oral administration of the compound was tested using a standard protocol. In experiments, the candidate compound was prepared as a clear solution, which was administered to the mice as a single intravenous injection and as an oral administration. The medium for the intravenous injection was 10% DMSO/10% solutol/80% water, and the medium for the oral administration was 0.5% sodium carboxymethylcellulose+0.2% Tween. The whole blood samples within 24 hours were collected. All blood samples were added to the well-labeled plastic centrifuge tubes, to which 0.5M K2-EDTA anticoagulant was added in advance. After the collection of blood samples, the blood samples were centrifuged at 4° C. at 3000 g for 10 minutes. The supernatant plasma was collected, promptly placed in the dry ice, and kept at a temperature of −20° C. or lower. The LC-MS/MS analysis method was used to quantitatively analyze the blood concentration, and the pharmacokinetics parameters, such as peak concentration, peak time, clearance rate, half-life, area under the curve and bioavailability were calculated.

Sequence of human FGFR4 (P22455 22-802): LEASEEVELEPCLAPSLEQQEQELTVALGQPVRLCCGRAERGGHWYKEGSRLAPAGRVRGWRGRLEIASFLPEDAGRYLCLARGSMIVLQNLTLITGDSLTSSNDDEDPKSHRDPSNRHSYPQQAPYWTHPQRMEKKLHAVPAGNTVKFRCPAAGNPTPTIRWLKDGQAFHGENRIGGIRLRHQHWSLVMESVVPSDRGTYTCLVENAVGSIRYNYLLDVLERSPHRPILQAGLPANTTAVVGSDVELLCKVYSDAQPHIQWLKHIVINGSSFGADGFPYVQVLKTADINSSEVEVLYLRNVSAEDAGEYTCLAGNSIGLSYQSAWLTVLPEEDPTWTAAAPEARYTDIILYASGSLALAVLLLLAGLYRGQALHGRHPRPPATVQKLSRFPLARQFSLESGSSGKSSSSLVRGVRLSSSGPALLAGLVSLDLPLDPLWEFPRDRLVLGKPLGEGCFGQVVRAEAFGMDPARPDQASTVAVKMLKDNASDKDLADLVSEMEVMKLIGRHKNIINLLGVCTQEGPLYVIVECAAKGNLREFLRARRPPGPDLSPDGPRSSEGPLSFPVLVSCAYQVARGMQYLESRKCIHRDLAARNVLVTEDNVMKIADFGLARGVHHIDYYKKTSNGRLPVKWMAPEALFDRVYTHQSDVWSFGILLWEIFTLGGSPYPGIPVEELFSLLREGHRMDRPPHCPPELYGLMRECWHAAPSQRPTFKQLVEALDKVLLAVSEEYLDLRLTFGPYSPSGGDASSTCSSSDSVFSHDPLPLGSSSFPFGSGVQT
Description for human FGFR1: (§1) Assay 1: Evaluation of Wild-Type Kinase Inhibitory Activity In Vitro
Description for human FGFR4: as §1

What is called IC50 is the point on the concentration scale where inhibition reaches its midpoint. Take `COc1cc(C)cc2cc(-c3cc([C@H]4CCN(C(=O)/C=C/CN5CCOCC5)C4)n4ncnc(N)c34)sc12` [Example 32]: the IC50 against human FGFR4 stood at 80 nM; on human FGFR1 (IC50 FGFR1, wild-type kinase) it was 4.7 nM.

Regarding `CCC(=O)N1CC[C@H](c2cc(-c3nc4cc(OC)cc(OC)c4s3)c3c(N)ncnn23)C1` [Example 28], the IC50 was above 10000 nM on human FGFR4 and above 10000 nM at human FGFR1 (IC50 FGFR1, wild-type kinase).

For `COc1cc(C)cc2cc(-c3cc(C4CCN(C(=O)/C=C/CN(C)C)C4)n4ncnc(N)c34)sc12` (single isomer, unassigned) [Example 12], the IC50 stood at 2.6 nM on human FGFR4 and 0.2 nM against human FGFR1 (IC50 FGFR1, wild-type kinase).

With `COc1cc(C)cc2cc(-c3cc(C4CCN(C(=O)/C=C/CN(C)C)C4)n4ncnc(N)c34)sc12` (single isomer, unassigned) [Example 13], the IC50 at human FGFR4 amounted to 8.7 nM; at human FGFR1 (IC50 FGFR1, wild-type kinase) it was 0.6 nM.

`COc1cc(OC)c2sc(-c3cc([C@@H]4CCN(C(=O)/C=C/CN(C)C)C4)n4ncnc(N)c34)cc2c1F` [Example 29]: the IC50 against human FGFR4 was 9.2 nM; at human FGFR1 (IC50 FGFR1, wild-type kinase), 0.5 nM.

On to `COc1cc(C)cc2cc(-c3cc(C4CCN(C(=O)CC#N)C4)n4ncnc(N)c34)sc12` (single isomer, unassigned) [Example 16], for which the IC50 is 5.3 nM at human FGFR4 and 0.8 nM against human FGFR1 (IC50 FGFR1, wild-type kinase).

As usually defined, the AUC is the area under the concentration-time curve, a measure of exposure. By clearance is commonly meant the rate of elimination divided by the concentration. Usually bioavailability stands for the share of a dose that reaches the circulation, judged against a reference dose that is usually intravenous. As for `COc1cc(C)cc2cc(-c3cc(C4CCN(C(=O)CC#N)C4)n4ncnc(N)c34)sc12` (single isomer, unassigned) [Example 15], in data set [1] (intravenous injection (3 npk)), the AUC was 2.03 µM·h, the clearance worked out at 52 mL/min/kg and the half-life is 48 min. Further, in data set [1] (oral administration (10 npk)), the AUC turned out to be 4.8 µM·h and the bioavailability stood at 70%. On human FGFR4, the IC50 is 6.2 nM. Moreover, the IC50 against human FGFR1 (IC50 FGFR1, wild-type kinase) was 1.5 nM.

For the compound `C=CC(=O)N1CC[C@H](n2nc(C#Cc3cc(OC)cc(OC)c3)c3c(N)ncnc32)C1` [Reference Example 1, reference compound], in data set [1] (intravenous injection (3 npk)), the AUC was 5.29 µM·h, the clearance came out at 22 mL/min/kg and the half-life was 42 min. Besides, in data set [1] (oral administration (10 npk)), the AUC was found to be 11.9 µM·h and the bioavailability worked out at 69%.

As to `C=CC(=O)N1CCC(c2c(COC)c(-c3cc4cc(C)cc(OC)c4s3)c3c(N)ncnn23)C1` (single isomer, unassigned) [Example 18], the IC50 is 0.2 nM at human FGFR4 and 0.1 nM at human FGFR1 (IC50 FGFR1, wild-type kinase).

`C=CC(=O)N1CC[C@H](c2cc(-c3sc4c(OC)cc(Cl)cc4c3C)c3c(N)ncnn23)C1` [Example 9]: the IC50 against human FGFR4 is 3.3 nM; on human FGFR1 (IC50 FGFR1, wild-type kinase), 0.7 nM.

Turning to `C=CC(=O)N1CCC(c2c(COC)c(-c3cc4cc(C)cc(OC)c4s3)c3c(N)ncnn23)C1` (single isomer, unassigned) [Example 19], the IC50 against human FGFR4 came out at 0.1 nM; on human FGFR1 (read-out: IC50 FGFR1, wild-type kinase), 0.1 nM.

With `C=CC(=O)N1CC[C@@H](c2cc(-c3cc4c(F)c(OC)cc(OC)c4s3)c3c(N)ncnn23)C1` [Example 22], the IC50 on human FGFR4 was determined as 9.9 nM; against human FGFR1 (IC50 FGFR1, wild-type kinase), 1.5 nM.

Turning to `CCC(=O)N1CC[C@@H](c2cc(-c3cc4c(F)c(OC)cc(OC)c4s3)c3c(N)ncnn23)C1` [Example 24], the IC50 was determined as 40 nM against human FGFR4 and 2.2 nM against human FGFR1 (IC50 FGFR1, wild-type kinase).

Consider `COc1cc(OC)c2sc(-c3cc([C@H]4CCN(C(=O)/C=C/CN(C)C)C4)n4ncnc(N)c34)cc2c1F` [Example 30], for which the IC50 on human FGFR4 worked out at 20 nM; on human FGFR1 (IC50 FGFR1, wild-type kinase), 1.6 nM.

With `C=CC(=O)N1CC[C@H](c2cc(-c3cc4cccc(OC)c4s3)c3c(N)ncnn23)C1` [Example 33], the IC50 turned out to be 0.9 nM on human FGFR4 and 0.5 nM against human FGFR1 (IC50 FGFR1, wild-type kinase).

With `C=CC(=O)N1CCCC(c2cc(-c3cc4cc(C)cc(OC)c4s3)c3c(N)ncnn23)C1` (centres unmarked) [Example 6], the IC50 on human FGFR4 worked out at 5.4 nM; on human FGFR1 (IC50 FGFR1, wild-type kinase) it was 1.7 nM.

As for `C=CC(=O)N1CC[C@H](c2cc(-c3cc4cccc(OC)c4o3)c3c(N)ncnn23)C1` [Example 25], the IC50 at human FGFR4 was 477 nM; on human FGFR1 (IC50 FGFR1, wild-type kinase), 250 nM.

Turning to `CC#CC(=O)N1CCC(c2c(COC)c(-c3cc4cc(C)cc(OC)c4s3)c3c(N)ncnn23)C1` (centres unmarked) [Example 20], the IC50 on human FGFR4 was 0.8 nM; at human FGFR1 (IC50 FGFR1, wild-type kinase), 0.2 nM.

With `C=CC(=O)N1CCC(c2cc(-c3sc4c(OC)cc(C)cc4c3C)c3c(N)ncnn23)C1` (single isomer, unassigned) [Example 7], the IC50 at human FGFR4 stood at 8.5 nM; against human FGFR1 (IC50 FGFR1, wild-type kinase), 0.7 nM.

For `C=CC(=O)N1CCC(c2cc(-c3sc4c(OC)cc(C)cc4c3C)c3c(N)ncnn23)C1` (single isomer, unassigned) [Example 8], the IC50 against human FGFR4 stood at 0.7 nM; against human FGFR1 (IC50 FGFR1, wild-type kinase), 0.1 nM.

Take `COc1cc(C)cc2cc(-c3cc([C@@H]4CCN(C(=O)/C=C/CN5CCOCC5)C4)n4ncnc(N)c34)sc12` [Example 31]: the IC50 came to 9.6 nM at human FGFR4 and 1.1 nM on human FGFR1 (IC50 FGFR1, wild-type kinase).

With `CC#CC(=O)N1CC[C@H](c2cc(-c3cc4cc(C)cc(OC)c4s3)c3c(N)ncnn23)C1` [Example 11], the IC50 against human FGFR4 amounted to 0.1 nM; against human FGFR1 (IC50 FGFR1, wild-type kinase), 0.1 nM.

Consider `C=CC(=O)N1CC[C@H](c2cc(-c3cc4cc(Cl)cc(OC)c4s3)c3c(N)ncnn23)C1` [Example 5], for which the IC50 worked out at 0.7 nM against human FGFR4 and 0.3 nM at human FGFR1 (IC50 FGFR1, wild-type kinase).

On to `C=CC(=O)N1CCC(c2cc(-c3cc4cc(C)cc(OC)c4s3)c3c(N)ncnn23)C1` (centres unmarked) [Example 1], for which the IC50 on human FGFR4 is 0.9 nM; against human FGFR1 (IC50 FGFR1, wild-type kinase) it was 0.4 nM.

As to `C=CC(=O)N1CC[C@H](c2cc(-c3cc4c(F)c(OC)cc(OC)c4s3)c3c(N)ncnn23)C1` [Example 23], the IC50 at human FGFR4 turned out to be 0.2 nM; against human FGFR1 (IC50 FGFR1, wild-type kinase) it was 0.2 nM.

Consider `CC#CC(=O)N1CC[C@@H](c2cc(-c3cc4cc(C)cc(OC)c4s3)c3c(N)ncnn23)C1` [Example 10], for which the IC50 against human FGFR4 was 1.5 nM; at human FGFR1 (IC50 FGFR1, wild-type kinase), 0.2 nM.

Regarding `CCC(=O)N1CC[C@H](c2cc(-c3cc4c(F)c(OC)cc(OC)c4s3)c3c(N)ncnn23)C1` [Example 21], the IC50 against human FGFR4 came out at 138 nM; at human FGFR1 (IC50 FGFR1, wild-type kinase), 6.6 nM.

For the compound `CCC(=O)N1CC[C@@H](c2cc(-c3cc4cc(C)cc(OC)c4s3)c3c(N)ncnn23)C1` [Example 26], the IC50 was 4.2 nM against human FGFR4 and 1.2 nM against human FGFR1 (IC50 FGFR1, wild-type kinase).

In the case of `C=CC(=O)N1CC[C@@H](c2cc(-c3cc4cc(Cl)cc(OC)c4s3)c3c(N)ncnn23)C1` [Example 4], the half-inhibitory concentration (IC50) on human FGFR4 stood at 4.1 nM; on human FGFR1 (IC50 FGFR1, wild-type kinase), 0.6 nM.

For the compound `C=CC(=O)N1CCC(O)(c2cc(-c3cc4cc(C)cc(OC)c4s3)c3c(N)ncnn23)C1` (centres unmarked) [Example 14], the IC50 against human FGFR4 is 6.6 nM; on human FGFR1 (IC50 FGFR1, wild-type kinase) it was 0.8 nM.

Consider `C=CC(=O)N1CC[C@H](c2cc(-c3nc4cc(OC)cc(OC)c4s3)c3c(N)ncnn23)C1` [Example 17], for which the IC50 against human FGFR4 was above 10000 nM; against human FGFR1 (IC50 FGFR1, wild-type kinase), above 10000 nM.

As for `C=CC(=O)N1CC[C@@H](c2cc(-c3nc4cc(OC)cc(OC)c4s3)c3c(N)ncnn23)C1` [Example 34], the 50% inhibitory concentration (IC50) against human FGFR4 worked out at 462 nM; against human FGFR1 (IC50 FGFR1, wild-type kinase), 126 nM.

As for `CCC(=O)N1CC[C@H](c2cc(-c3cc4cc(C)cc(OC)c4s3)c3c(N)ncnn23)C1` [Example 27], the IC50 at human FGFR4 stood at 67 nM; on human FGFR1 (IC50 FGFR1, wild-type kinase), 4.7 nM.
